Results: patent US20080113899A1, “Iron Supplement and Utilization of the Same” (GEKKEIKAN SAKE CO., LTD., priority 2004, published 2008)
Read-outs that look alike come from different tables or passages of the source. Marks after values point to notes of the source that are not given here. Non-standard residues stand in square brackets, D forms with d. Residues, ends and D or L forms follow the SMILES beside them. ξ: configuration not given here. ξOrn(N(OH)Ac) = CC(=O)N(O)CCCC(N)C(=O)O

How the values were obtained:
[1] = tested on: SD male rats having iron deficiency anemia; experiment: Measurement of hemoglobin concentration in the blood; type: in vivo, rat; settings: mean±SD of five rats
Source text: The rats in the control group were fed iron-containing food 1 (ferric citrate) during the study.

[2] = tested on: SD male rats having iron deficiency anemia; experiment: Measurement of serum iron concentration; type: in vivo, rat; settings: 3 weeks free feeding, food iron content 35 ppm; mean±SD of five rats
Method: Serum was prepared from the blood wholly exsanguinated from the rats of each group after the rats had been given their iron-containing food, so as to measure iron concentrations in the serums by a usual method.

[3] = tested on: SD male rats having iron deficiency anemia; experiment: Measurement of iron concentration in the liver; type: in vivo, rat; settings: 3 weeks free feeding, food iron content 35 ppm; mean±SD of five rats
Method: Rats of the control group were fed food 1 (ferric citrate) from the beginning, i.e. through to the end. At the end of the experiment, livers were removed after perfusion of saline into the portal vein to exclude the blood; they were weighed and freeze-dried. The dried liver was subsequently incinerated and subjected to atomic absorption, so as to measure the iron concentration in the liver. Further, the water content of the liver was calculated, and the concentration of iron stored in the liver of the body was determined based on the iron concentration in the dried liver and the water content of the liver.

[4] = tested on: SD male rats having iron deficiency anemia; settings: rat, in vivo
Source text: Five four-week-old SD male rats as the control group were fed iron-containing food 1.
The fifteen rats having iron deficiency anemia were subsequently divided into three groups, and were freely fed iron-containing foods 1, 2 and 3, respectively, for 3 weeks. As the iron source, iron-containing food 1 contains ferric citrate; iron-containing food 2 contains water-soluble heme iron; and iron-containing food 3 contains ferrichrysin.
Measurements were made by a usual method of the concentrations of protein, ALT (alanine aminotransferase), AST (aspartate aminotransferase) and creatinine in the serums of the groups of rats which were fed iron-containing food 1 (ferric citrate), food 2 (heme iron) and food 3 (ferrichrysin) after the development of iron deficiency anemia, as well as the rats in the control group which were fed food 1 (ferric citrate) from the beginning.

[5] = Solubility of ferrichrysin in water compared with other iron compounds; settings: for Precipitate: 0.1 g in 1 ml, 37° C., 90 min, centrifuged, visual
Method: The solubility of ferrichrysin was compared with the solubilities of other iron compounds. Water-soluble heme iron, ferric citrate and ferrichrysin which were used in Example 1 were used as iron compounds. 0.1 g of each of these iron compounds was dissolved in 1 ml of each buffer having a pH of 2 or 7, and then the solutions were incubated at 37° C. for 90 min. A glycine/hydrochloric acid buffer was used as the pH 2 buffer, and a phosphate buffer was used as the pH 7 buffer. The concentration of buffer agent(s) in each buffer was adjusted to 0.1 mol/l. After being incubated, each buffer was centrifuged to visually confirm the presence or absence of precipitate. Further, the iron concentration in the supernatant of each buffer was measured by atomic absorption.

[6] = Thermal and pH stabilities of ferrichrysin (absorbance at 430 nm before/after sterilization); type: physicochemical; settings: 0.25 mg/ml; for Absorbance at 430 nm after sterilization: 20 min, 120° C., 200 kPa
Method: Ferrichrysin is known to show an absorption maximum at 430 nm. Ferrichrysin was tested for pH and thermal stabilities utilizing this property.
Ferrichrysin prepared from a rice koji extract in the manner as described above was dissolved in ultrapure water to a concentration of 2.5 mg/ml. The resulting solution was subsequently diluted to give a ferrichrysin concentration of 0.25 mg/ml using each of the following buffers. A glycine-hydrochloric acid buffer was used for a pH 2 or pH 3 buffer; a acetate buffer was used for a pH 4 or pH 5 buffer; a phosphate buffer was used for a pH 6 or pH 7 buffer; a tris-hydrochloric acid buffer was used for a pH 8 buffer; and a glycine-sodium hydroxide buffer was used for a pH 9 or pH 10 buffer.
Each ferrichrysin solution was placed in a screw-cap test tube, and then the test tube was sealed. The solution was subsequently sterilized by a process of steaming under pressure for 20 min at a temperature of 120° C. and a pressure of 200 kPa. The absorbance of each solution at 430 nm was measured prior to and after the sterilization.

[7] = for Proportion of the iron concentration after the reaction to the initial iron concentration (1 mg/ml): phytic acid, 37° C., 3 hr, filtrate, cut-off 10000
Method: (§1) Ferrichrysin was tested for its reactivity with tannic acid and phytic acid, the typical iron uptake inhibitor, so as to compare its reactivity with that of other iron compounds with these iron uptake inhibitor.
(§2) A 0.6% tannic acid solution and a 0.6% phytic acid solution were also prepared. The pH of each of these solutions was adjusted with hydrochloric acid or sodium hydroxide to 2.0, 4.0, 6.0 or 8.0.
(§3) The iron-compound solutions were mixed with each of the tannic acid and phytic acid solutions at a volume ratio of 1:9, and then the mixtures were incubated at 37° C. for 3 hr, so as to react the iron compounds with each of these iron uptake inhibitor. The resulting solutions were centrifuged at 15000 rpm for 5 min, and then the supernatant of each solution was ultrafiltrated using membranes having a molecular weight cut-off of 10000. The iron concentration in each filtrate was measured by atomic absorption.

[8] = for Proportion of the iron concentration after the reaction to the initial iron concentration (1 mg/ml): tannic acid, 37° C., 3 hr, filtrate, cut-off 10000
Method: as §1, §2, §3

[9] = tested on: SD male rats having iron deficiency anemia; settings: rat, in vivo; remark: listed apart in the source
Source text: Fifteen four-week-old SD male rats were freely fed an iron-deficient food for 35 days to develop iron deficiency anemia with the average blood hemoglobin value reduced to 6.5 g/dl. Five four-week-old SD male rats as the control group were fed iron-containing food 1.
The weight gain in each group is the mean±standard deviation value of the five rats in the group.

Question: For `CC(=O)N([O-])CCCC1NC(=O)CNC(=O)C(CO)NC(=O)C(CO)NC(=O)C(CCCN([O-])C(C)=O)NC(=O)C(CCCN([O-])C(C)=O)NC1=O.[Fe+3]` (stereo not drawn) [Ferrichrysin, ferrichrysin] (cyclo(G[ξOrn(N(OH)Ac)][ξOrn(N(OH)Ac)][ξOrn(N(OH)Ac)]SS); configuration not given here), which “Hemoglobin concentration in the blood, after feeding iron-containing food” value ([1]; 3 weeks free feeding, food iron content 35 ppm) is on record?
Answer: 14.3 ± 0.3 g/dL

Question: And the “Hemoglobin concentration in the blood, before feeding iron-containing food” value ([1]; baseline after 35 days iron-deficient food)?
Answer: 6.4 ± 0.9 g/dL

Question: And the “Serum iron concentration after feeding iron-containing food” value [2]?
Answer: 116.7 ± 24.1 µg/dL

Question: And the “Iron concentration in the liver” value [3]?
Answer: 39.3 ± 7.6 ppm

Question: And the ALT [4]?
Answer: 17.7 ± 2.3^a Karmen

Question: And the AST [4]?
Answer: 72.3 ± 3.2^b Karmen

Question: What about the Creatinine [4] of the same molecule?
Answer: 0.63 ± 0.06 mg/dL

Question: What about the Serum protein [4] of the same molecule?
Answer: 67.6 ± 4.1 mg/mL

Question: What about the “Side effects on the body (liver and kidney function), in words” value [4] of the same molecule?
Answer: no harmful side effects

Question: What about the “Water solubility, in words” value [5] of the same molecule?
Answer: very high water solubility

Question: And the Precipitate ([5]; pH 2.0)?
Answer: No

Question: And the Precipitate ([5]; pH 7.0)?
Answer: No

Question: And the “Absorbance at 430 nm before sterilization” value ([6]; pH 2.0)?
Answer: 0.709

Question: And the “Absorbance at 430 nm after sterilization” value ([6]; pH 2.0)?
Answer: 0.366

Question: And the “Absorbance at 430 nm before sterilization” value ([6]; pH 3.0)?
Answer: 0.742

Question: And the “Absorbance at 430 nm after sterilization” value ([6]; pH 3.0)?
Answer: 0.721

Question: What about the “Absorbance at 430 nm before sterilization” value ([6]; pH 4.0) of the same molecule?
Answer: 0.738

Question: And the “Absorbance at 430 nm after sterilization” value ([6]; pH 4.0)?
Answer: 0.743

Question: And the “Absorbance at 430 nm before sterilization” value ([6]; pH 5.0)?
Answer: 0.732

Question: And the “Absorbance at 430 nm after sterilization” value ([6]; pH 5.0)?
Answer: 0.748

Question: And the “Absorbance at 430 nm before sterilization” value ([6]; pH 6.0)?
Answer: 0.743

Question: What about the “Absorbance at 430 nm after sterilization” value ([6]; pH 6.0) of the same molecule?
Answer: 0.746

Question: And the “Absorbance at 430 nm before sterilization” value ([6]; pH 7.0)?
Answer: 0.764

Question: What about the “Absorbance at 430 nm after sterilization” value ([6]; pH 7.0) of the same molecule?
Answer: 0.774

Question: What about the “Absorbance at 430 nm before sterilization” value ([6]; pH 8.0) of the same molecule?
Answer: 0.758

Question: And the “Absorbance at 430 nm after sterilization” value ([6]; pH 8.0)?
Answer: 0.747

Question: And the “Absorbance at 430 nm before sterilization” value ([6]; pH 9.0)?
Answer: 0.765

Question: And the “Absorbance at 430 nm after sterilization” value ([6]; pH 9.0)?
Answer: 0.767

Question: And the “Absorbance at 430 nm before sterilization” value ([6]; pH 10.0)?
Answer: 0.769

Question: What about the “Absorbance at 430 nm after sterilization” value ([6]; pH 10.0) of the same molecule?
Answer: 0.772

Question: And the “Reactivity with iron-insolubilizing component, in words” value ([7]; pH 2)?
Answer: low reactivity

Question: And the “Proportion of the iron concentration after the reaction to the initial iron concentration (1 mg/ml)” value (“Proportion of the iron concentration” for short) ([7]; pH 2.0)?
Answer: 85.7%

Question: What about the “Proportion of the iron concentration” value ([7]; pH 4.0) of the same molecule?
Answer: 100.6%

Question: What about the “Proportion of the iron concentration” value ([7]; pH 6.0) of the same molecule?
Answer: 101.8%

Question: And the “Proportion of the iron concentration” value ([7]; pH 8.0)?
Answer: 100.3%

Question: What about the “Reactivity with iron-insolubilizing component, in words” value ([8]; pH 2) of the same molecule?
Answer: low reactivity

Question: What about the “Proportion of the iron concentration” value ([8]; pH 2.0) of the same molecule?
Answer: 80.5%

Question: And the “Proportion of the iron concentration” value ([8]; pH 4.0)?
Answer: 71.8%

Question: And the “Proportion of the iron concentration” value ([8]; pH 6.0)?
Answer: 76.1%

Question: And the “Proportion of the iron concentration” value ([8]; pH 8.0)?
Answer: 81.9%

Question: And the Average food intake [9]?
Answer: 366.3 g/3 weeks

Question: What about the Body weight gain [9] of the same molecule?
Answer: 70.1 ± 8.3 g/3 weeks
